Measurements from patent US20090226527A1, “Particulate-stabilized injectable pharmacutical compositions of posaconazole” (priority 2004, published 2009).
Converted amounts (≈) assume the structure as drawn. “And” between values parts separate entries of the source, which are not always exact repeats. Identical values can stand only once. Like-named read-outs stand apart in the source and are kept apart here.

Test system: infectious agents (strains tested)
Experiment: organism not typed
Type: cell-based

## OC(Cn1cncn1)(Cn1cncn1)c1ccc(F)cc1F [FLZ]
  Geometric Mean MIC: 16.450 µg/mL and 19.027 µg/mL
Absidia spp
  Geometric Mean MIC: 143.675 µg/mL
Apophysomyces spp
  Geometric Mean MIC: 128.000 µg/mL
  MIC[90]: (128.0) μg/mL
Aspergillus flavus
  Geometric Mean MIC: 220.898 µg/mL
Aspergillus fumigatus
  MIC[90]: 512.0 µg/mL (≈ 1670 µM)
Aspergillus nidulans
  Geometric Mean MIC: 76.109 µg/mL
  MIC[90]: (32.0-128.0) μg/mL
Aspergillus niger
  Geometric Mean MIC: 234.753 µg/mL
Aspergillus sydowii
  Geometric Mean MIC: 115.933 µg/mL
Aspergillus terreus
  Geometric Mean MIC: 208.327 µg/mL
Aspergillus ustus
  Geometric Mean MIC: 172.275 µg/mL
Bipolaris spp
  Geometric Mean MIC: 64.000 µg/mL
  MIC[90]: (64.0) μg/mL
Bjerkandera adusta
  Geometric Mean MIC: 4.000 µg/mL
  MIC[90]: 4.0 µg/mL (≈ 13.1 µM)
Blastomyces dermatitidis
  Geometric Mean MIC: 2.191 µg/mL
  MIC[90]: 16.0 µg/mL (≈ 52.2 µM)
Candida albicans
  Geometric Mean MIC: 0.415 µg/mL
  MIC[90]: 2.0 µg/mL (≈ 6.53 µM)
Candida dubliniensis
  Geometric Mean MIC: 0.454 µg/mL
  MIC[90]: 32.0 µg/mL (≈ 104 µM)
Candida famata
  Geometric Mean MIC: 4.084 µg/mL
  MIC[90]: 32.0 µg/mL (≈ 104 µM)
Candida glabrata
  Geometric Mean MIC: 9.719 µg/mL
  MIC[90]: 64.0 µg/mL (≈ 209 µM)
Candida guilliermondii
  Geometric Mean MIC: 4.000 µg/mL
  MIC[90]: 32.0 µg/mL (≈ 104 µM)
Candida kefyr
  Geometric Mean MIC: 0.500 µg/mL
  MIC[90]: 4.0 µg/mL (≈ 13.1 µM)
Candida krusei
  Geometric Mean MIC: 32.521 µg/mL
  MIC[90]: 64.0 µg/mL (≈ 209 µM)
Candida lusitaniae
  Geometric Mean MIC: 0.627 µg/mL
  MIC[90]: 2.0 µg/mL (≈ 6.53 µM)
Candida parapsilosis
  Geometric Mean MIC: 0.910 µg/mL
  MIC[90]: 2.0 µg/mL (≈ 6.53 µM)
Candida rugosa
  Geometric Mean MIC: 3.391 µg/mL
  MIC[90]: 16.0 µg/mL (≈ 52.2 µM)
Candida tropicalis
  Geometric Mean MIC: 0.961 µg/mL
  MIC[90]: 4.0 µg/mL (≈ 13.1 µM)
Candida zeylanoides
  Geometric Mean MIC: 0.354 µg/mL
  MIC[90]: (0.125-1.0) μg/mL
Cryptococcus laurentii
  Geometric Mean MIC: 5.040 µg/mL
  MIC[90]: (4.0-8.0) μg/mL
Cryptococcus neoformans
  Geometric Mean MIC: 1.781 µg/mL
  MIC[90]: 8.0 µg/mL (≈ 26.1 µM)
Curvularia spp
  Geometric Mean MIC: 16.000 µg/mL
  MIC[90]: (16.0) μg/mL
Epidermophyton floccosum
  Geometric Mean MIC: 1.447 µg/mL
  MIC[90]: 2.0 µg/mL (≈ 6.53 µM)
Exophiala dermatidis
  Geometric Mean MIC: 8.000 µg/mL
  MIC[90]: (8.0) μg/mL
Fonsecae pedrosoi
  Geometric Mean MIC: 64.000 µg/mL
  MIC[90]: (64.0) μg/mL
Kluyveromyces marxianus
  Geometric Mean MIC: 0.500 µg/mL
  MIC[90]: (0.25-1.0) μg/mL
Microsporum canis
  Geometric Mean MIC: 2.000 µg/mL
  MIC[90]: 4.0 µg/mL (≈ 13.1 µM)
Microsporum gypseum
  Geometric Mean MIC: 16.000 µg/mL
  MIC[90]: (4.0-128.0) μg/mL
Microsporum persicolor
  Geometric Mean MIC: 128.000 µg/mL
  MIC[90]: (128.0) μg/mL
Mucor spp
  Geometric Mean MIC: 207.937 µg/mL
Paecilomyces spp
  Geometric Mean MIC: 141.323 µg/mL
Paracoccidioides brasiliensis
  Geometric Mean MIC: 0.766 µg/mL
  MIC[90]: 4.0 µg/mL (≈ 13.1 µM)
Penicillium spp
  Geometric Mean MIC: 220.996 µg/mL
Pichia anomala
  Geometric Mean MIC: 2.670 µg/mL
  MIC[90]: 4.0 µg/mL (≈ 13.1 µM)
Pichia etchel
  Geometric Mean MIC: 0.125 µg/mL
  MIC[90]: (0.125) μg/mL
Pichia ohmeri
  Geometric Mean MIC: 4.000 µg/mL
  MIC[90]: (4.0) μg/mL
Pseudallescheria boydii
  Geometric Mean MIC: 41.237 µg/mL
  MIC[90]: 128.0 µg/mL (≈ 418 µM)
Ramichloridium obovoideum
  Geometric Mean MIC: 22.627 µg/mL
  MIC[90]: (16.0-32.0) μg/mL
Rhizopus spp
  Geometric Mean MIC: 229.461 µg/mL
Saccharomyces cerevisiae
  Geometric Mean MIC: 2.845 µg/mL
  MIC[90]: 16.0 µg/mL (≈ 52.2 µM)
Scedosporium apiospermum
  Geometric Mean MIC: 84.449 µg/mL
Trichophyton mentagrophytes
  Geometric Mean MIC: 9.190 µg/mL
  MIC[90]: 64.0 µg/mL (≈ 209 µM)
Trichophyton raubitschekii
  Geometric Mean MIC: 128.000 µg/mL
  MIC[90]: (128.0) μg/mL
Trichophyton rubrum
  Geometric Mean MIC: 4.407 µg/mL
  MIC[90]: 32.0 µg/mL (≈ 104 µM)
Trichophyton soudanense
  Geometric Mean MIC: 128.000 µg/mL
  MIC[90]: (128.0) μg/mL
Trichophyton terrestre
  Geometric Mean MIC: 1.000 µg/mL
  MIC[90]: (1.0) μg/mL
Trichophyton tonsurans
  Geometric Mean MIC: 3.775 µg/mL
  MIC[90]: 32.0 µg/mL (≈ 104 µM)
Trichosporon spp
  Geometric Mean MIC: 12.699 µg/mL
  MIC[90]: (4.0-64.0) μg/mL
Yarrowia lipolytica
  Geometric Mean MIC: 1.741 µg/mL
  MIC[90]: (0.125-32.0) μg/mL
